Assay results taken from US8598339B2, “Withanolide isolated from Physalis longifolia and analogs and methods of use thereof” (University of Kansas, priority 2011, dated 2013).
Blank lines part the entries; values can stand above or below the molecule they belong to.

What was measured:
[1] = system: human melanoma SKMEL28 cells; test: MTS cell viability assay, SKMEL28; format: cell-based; settings: for IC90: SK-MEL-28, Table 6
Experimental: (§1) Human carcinoid cells, NCI-H727 (ATCC, Manassas, Va.), were cultured under standard conditions. Squamous cell carcinoma of head and neck cells, MDA1986 (Myers, et al. (2002) Clin. Cancer Res. 8:293) and JMAR (Swan, et al. (2003) Oral Oncol. 39:648-55); and melanoma cells lines B16F10 (ATCC, Manassas, Va.) and SKMEL28 (CLS, Eppelheim, Germany) were cultured in DMEM medium supplemented with 10% heat-inactivated fetal bovine serum (Sigma-Aldrich, St. Louis, Mo.), 1×MEM-essential amino acid, 1×MEM vitamin, and penicillin/streptomycin (Sigma-Aldrich, St. Louis, Mo.) in a humid environment of 5% CO2 at 37° C. Activity of withanolides against DRO81-1 and TT medullary thyroid cancer cells was also determined.
(§2) Cells were cultured in 96 well plates at a concentration of 1-2×10^4 cells/mL. Cell viability was assessed with the nonradioactive cell proliferation MTS assay using Cell Titer 96AQUEOUS One Solution Reagent (PROMEGA, Madison, Wis.), according to the manufacturer's instruction. After a 72-hour treatment, 20 μL of Cell Titer 96AQUEOUS One Solution Reagent were added to each well and incubated for 3 hours at 37° C. 5% CO2, and formazan absorbance was measured at 490 nm.
A cell viability MTS assay was carried out to determine the anti-cancer effect of the withanolides on human melanoma SKMEL28 cells. Cells were treated for 72 hours and cell viability was determined according to the manufacturer's instruction.

melanoma cells B16F10 = test: MTS cell viability assay, B16F10; format: cell-based; settings: Mus musculus; for IC50: B16-F10, Table 5; for IC90: B16-F10, Table 6
Experimental: as §1, §2

[2] = system: squamous cell carcinoma of head and neck cells MDA1986; test: MTS cell viability assay, MDA1986; format: cell-based; settings: for IC50: Table 5; for IC90: Table 6
Experimental: as §1, §2

[3] = system: squamous cell carcinoma of head and neck cells JMAR; test: MTS cell viability assay, JMAR; format: cell-based; settings: for IC50: Table 5; for IC90: Table 6
Experimental: as §1, §2

MRC-5 = test: MTS cell viability assay, MRC-5; format: cell-based; settings: Homo sapiens, MRC5, Table 5
Ames test strain TA98 = test: Ames test, TA98; settings: 1.0E−05 M
Ames test strain TA100 = test: Ames test, TA100; settings: 1.0E−05 M
Ames test strain TA1535 = test: Ames test, TA1535; settings: 1.0E−05 M
[4] = Table 3, treated for 72 hours, NA = no activity
[5] = Homo sapiens, SK-MEL-28, Table 5

Compound: CC1=C(CO)C(=O)O[C@@H]([C@@H](C)[C@H]2CC[C@H]3[C@@H]4C[C@H]5O[C@]56[C@@H](O)[C@@H](O)CC(=O)[C@]6(C)[C@H]4CC[C@]23C)C1 [Viscosalactone B, reference compound]
- IC50 [1, 4]: 18.9 µM

Compound: CC1=C(COC2OC(CO)C(O)C(O)C2O)C[C@H]([C@@H](C)[C@H]2CC[C@H]3[C@@H]4CC(=O)C5=C(CC[C@@H](O)C5)[C@H]4CC[C@]23C)OC1=O (some centres unmarked) [Compound X014]
- IC50 (melanoma cells B16F10): > 25 µM
- IC50 [1, 5]: > 25 µM
- IC50 [2]: > 25 µM
- IC50 [3]: > 25 µM
- IC50 (MRC-5): > 25 µM

Compound: CC1=C(COC(=O)c2ccc(Cl)cc2)C(=O)O[C@@H]([C@@H](C)[C@H]2CC[C@H]3[C@@H]4C[C@H]5O[C@]56[C@@H](OC(=O)c5ccc(Cl)cc5)C=CC(=O)[C@]6(CO)[C@H]4CC[C@]23C)C1 [HFM-JA-398B]
- IC50 (melanoma cells B16F10): 10 µM
- IC50 [1, 5]: > 25 µM
- IC50 [2]: > 25 µM
- IC50 [3]: 10.6 µM
- IC50 (MRC-5): 7.13 µM

Compound: CO[C@H]1CC(=O)[C@]2(C)[C@@H]3[C@@H](C[C@H]4O[C@]42[C@H]1O)[C@@H]1CC[C@H]([C@H](C)[C@H]2CC(C)=C(CO)C(=O)O2)[C@@]1(C)C[C@@H]3O [Compound X007]
- IC50 (melanoma cells B16F10): 5.57 µM
- IC50 [1, 5]: 11.6 µM
- IC50 [2]: 8.34 µM
- IC50 [3]: 12 µM
- IC50 (MRC-5): 7.33 µM

Compound: CC1=C(CO)C(=O)O[C@@](C)([C@@H](C)[C@H]2CC[C@H]3[C@@H]4CC=C5C[C@@H](OC6OC(CO)C(O)C(O)C6O)CC(=O)[C@]5(CO)[C@H]4CC[C@]23C)C1 (some centres unmarked) [Compound X012]
- IC50 (melanoma cells B16F10): 10.7 µM
- IC50 [1, 5]: > 25 µM
- IC50 [2]: > 25 µM
- IC50 [3]: > 25 µM
- IC50 (MRC-5): > 25 µM

Compound: CC1=C(CO)C(=O)O[C@@H]([C@@H](C)[C@H]2CC[C@H]3[C@@H]4C[C@H]5O[C@]56[C@@H](OC(=O)c5ccc(Cl)cc5)C=CC(=O)[C@]6(CO)[C@H]4CC[C@]23C)C1 [HFM-JA-398H]
- IC50 (melanoma cells B16F10): 2.35 µM
- IC50 [1, 5]: 3.45 µM
- IC50 [2]: 6.05 µM
- IC50 [3]: 2.61 µM
- IC50 (MRC-5): 5.29 µM

Compound: CC1=C(COC2OC(CO)C(O)C(O)C2O)C[C@H]([C@@H](C)[C@H]2CC[C@H]3[C@@H]4CC=C5C[C@@H](O)C[C@H](O)[C@]5(CO)[C@H]4CC[C@]23C)OC1=O (some centres unmarked) [Compound X013]
- IC50 (melanoma cells B16F10): > 25 µM
- IC50 [1, 5]: > 25 µM
- IC50 [2]: > 25 µM
- IC50 [3]: > 25 µM
- IC50 (MRC-5): > 25 µM

- IC50 [1, 4]: 17 µM
Compound: CC1=C(CO)C(=O)OC(C(C)C2CCC3C4CC(O)C5(C=O)CCC(=O)C5(C)C4CCC23C)C1 (stereo not drawn) [Compound O010, 22R-5β-formyl-6β,27-dihydroxyl-1-oxo-4-norwith-24-enolide, reference compound]

Compound: CC1=C(CO)C(=O)O[C@@H]([C@@H](C)[C@H]2CC[C@H]3[C@@H]4CC=C5C=CC(=O)[C@]5(C)[C@H]4CC[C@]23C)C1 [Compound X006]
- IC50 (melanoma cells B16F10): 19.2 µM
- IC50 [1, 5]: > 25 µM
- IC50 [2]: > 25 µM
- IC50 [3]: 19.7 µM
- IC50 (MRC-5): > 25 µM

Compound: CC1=C(CO)C(=O)O[C@@H]([C@@H](C)[C@H]2CC[C@H]3[C@@H]4C[C@H]5O[C@]56[C@@H](OC(=O)CN(C)C)C=CC(=O)[C@]6(C)[C@H]4CC[C@]23C)C1 [Compound X036]
- IC50 (melanoma cells B16F10): 4.37 µM
- IC50 [1, 5]: 2.35 µM
- IC50 [2]: 1.59 µM
- IC50 [3]: 3.53 µM
- IC50 (MRC-5): 3.69 µM

- IC50 [1, 4]: 0.23 µM
Compound: C=CCNC1=C2C[C@@H](C)C[C@H](OC)[C@H](O)[C@@H](C)/C=C(\C)[C@H](OC(N)=O)[C@@H](OC)/C=C\C=C(/C)C(=O)NC(=CC1=O)C2=O [17 AAG, 17-allylamino-17-demethoxygeldanamycin, reference compound]

Compound: CC1=C(COC2OC(CO)C(OC3OC(C)C(O)C(O)C3O)C(O)C2O)C(=O)O[C@@H]([C@@H](C)[C@H]2CC[C@H]3[C@@H]4C[C@H]5O[C@]56[C@@H](O)C=CC(=O)[C@]6(C)[C@H]4CC[C@]23C)C1 (some centres unmarked) [Compound X011]
- IC50 (melanoma cells B16F10): > 25 µM
- IC50 [1, 5]: 17.4 µM
- IC50 [2]: 8.1 µM
- IC50 [3]: 8.24 µM
- IC50 (MRC-5): 8.72 µM

Compound: CC1=C(C)C(=O)O[C@@H]([C@@H](C)[C@H]2CC[C@H]3[C@@H]4C[C@H]5O[C@]56[C@@H](O)C=CC(=O)[C@]6(CO)[C@H]4CC[C@]23C)C1 [Compound X030B]
- IC50 (melanoma cells B16F10): 0.2 µM
- IC50 [1, 5]: 3.91 µM
- IC50 [2]: 1.3 µM
- IC50 [3]: 0.17 µM
- IC50 (MRC-5): 0.4 µM

Compound: CC(=O)OCC1=C(C)C[C@H]([C@@H](C)[C@H]2CC[C@H]3[C@@H]4C[C@H]5O[C@]56[C@@H](O)C=CC(=O)[C@]6(COC(C)=O)[C@H]4CC[C@]23C)OC1=O [HFM-JA-336D]
- IC50 (melanoma cells B16F10): 0.37 µM
- IC90 (melanoma cells B16F10): 2.5 µM
- IC50 [1, 5]: 0.27 µM
- IC90 ([1]; Homo sapiens): 0.42 µM
- IC90 [2]: 2.5 µM
- IC50 [3]: 1.45 µM
- IC90 [3]: 7.1 µM

Compound: Nc1cccc2cc3ccccc3cc12 [Aminoanthracene, reference compound]
- Positive Significance (− to +++) (Ames test strain TA98; TA98 +S9): +++ (Very strong positive, if p < 0.001, denoted as “+++”.)
- Positive Significance (− to +++) (Ames test strain TA98; TA98 −S9): −
- Positive Significance (− to +++) (Ames test strain TA100; TA100 +S9): +++ (Very strong positive, if p < 0.001, denoted as “+++”.)
- Positive Significance (− to +++) (Ames test strain TA100; TA100 −S9): −
- Positive Significance (− to +++) (Ames test strain TA1535; TA1535 +S9): +++ (Very strong positive, if p < 0.001, denoted as “+++”.)
- Positive Significance (− to +++) (Ames test strain TA1535; TA1535 −S9): −

Compound: CC(=O)OC[C@]12C(=O)C=C[C@H](O)[C@]13O[C@@H]3C[C@H]1[C@@H]3CC[C@H]([C@H](C)[C@H]4CC(C)=C(CO)C(=O)O4)[C@@]3(C)CC[C@@H]12 [HFM-JA-336B]
- IC50 (melanoma cells B16F10): 0.37 µM
- IC90 (melanoma cells B16F10): 1.2 µM
- IC50 [1, 5]: 0.24 µM
- IC90 ([1]; Homo sapiens): 1.16 µM
- IC90 [2]: 1.2 µM
- IC50 [3]: 1.2 µM
- IC90 [3]: 3.1 µM

Compound: CC1=C(CO)C(=O)O[C@@H]([C@@H](C)[C@H]2CC[C@H]3[C@@H]4C[C@H]5O[C@]56[C@@H](OC(=O)N(C)C)C=CC(=O)[C@]6(CO)[C@H]4CC[C@]23C)C1 [HFM-JA-403]
- IC50 (melanoma cells B16F10): 0.28 µM
- IC50 [1, 5]: 2.31 µM
- IC50 [2]: 2.48 µM
- IC50 [3]: 0.55 µM
- IC50 (MRC-5): 0.69 µM

Compound: CC(=O)O[C@H]1C=CC(=O)[C@]2(CO)[C@H]3CC[C@]4(C)[C@@H]([C@H](C)[C@H]5CC(C)=C(CO)C(=O)O5)CC[C@H]4[C@@H]3C[C@H]3O[C@]132 [HFM-JA-336C]
- IC50 (melanoma cells B16F10): 0.69 µM
- IC90 (melanoma cells B16F10): 2.5 µM
- IC50 [1, 5]: 0.57 µM
- IC90 ([1]; Homo sapiens): 1.21 µM
- IC90 [2]: 2.5 µM
- IC50 [3]: 2 µM
- IC90 [3]: 6.5 µM

Compound: CC(=O)OCC1=C(C)C[C@H]([C@@H](C)[C@H]2CC[C@H]3[C@@H]4C[C@H]5O[C@]56[C@@H](O)C=CC(=O)[C@]6(CO)[C@H]4CC[C@]23C)OC1=O [HFM-JA-336A]
- IC50 (melanoma cells B16F10): 0.28 µM
- IC90 (melanoma cells B16F10): 2.7 µM
- IC50 [1, 5]: 0.58 µM
- IC90 ([1]; Homo sapiens): 0.86 µM
- IC90 [2]: 2.7 µM
- IC50 [3]: 3.6 µM
- IC90 [3]: 9.8 µM

Compound: CC1=C(COC2OC(CO)C(O)C(O)C2O)C[C@H]([C@@H](C)[C@H]2CC[C@H]3[C@@H]4C[C@H](O)c5cccc(O)c5[C@H]4CC[C@]23C)OC1=O (some centres unmarked) [Compound X015]
- IC50 (melanoma cells B16F10): > 25 µM
- IC50 [1, 5]: > 25 µM
- IC50 [2]: > 25 µM
- IC50 [3]: > 25 µM
- IC50 (MRC-5): > 25 µM

Compound: CC1=C(COC2OC(CO)C(O)C(O)C2O)C[C@H]([C@@H](C)[C@H]2CC[C@H]3[C@@H]4CCC5=C(C(=O)C[C@H](O)C5)[C@H]4CC[C@]23C)OC1=O (some centres unmarked) [Compound X026B]
- IC50 (melanoma cells B16F10): 11 µM
- IC50 [1, 5]: > 25 µM
- IC50 [2]: > 25 µM
- IC50 [3]: > 25 µM
- IC50 (MRC-5): 13.5 µM

Compound: CC(=O)OC[C@]12C(=O)C=C[C@H](OC(=O)c3ccc(Cl)cc3)[C@]13O[C@@H]3C[C@H]1[C@@H]3CC[C@H]([C@H](C)[C@H]4CC(C)=C(COC(=O)c5ccc(Cl)cc5)C(=O)O4)[C@@]3(C)CC[C@@H]12 [HFM-JA-400]
- IC50 (melanoma cells B16F10): 9.04 µM
- IC50 [1, 5]: > 25 µM
- IC50 [2]: > 25 µM
- IC50 [3]: > 25 µM
- IC50 (MRC-5): 10.8 µM
